{
  "source": "paper PMC12713470",
  "about": "“Design and Synthesis of Novel Chalcone Derivatives Targeting Bladder and Liver Cancer: Cytotoxicity Evaluation and Preliminary Mechanistic Studies” (ACS Omega, 2025)",
  "key": {"[1]": {"test_system": "HepG2: human liver hepatocellular carcinoma cells", "experiment": "MTT cytotoxicity assay on HepG2 cells", "type": "cell-based", "protocol": "Cytotoxicity was determined using the MTT colorimetric assay, and half-maximal inhibitory concentrations (IC50, μM) were obtained for all cell lines (Table ). The selectivity index (SI) was calculated as the ratio of IC50 MRC-5/IC50 cancer cell line. Doxorubicin was employed as a positive control due to its broad-spectrum clinical use, either alone or in combination, against hepatocellular, ovarian, cervical, and bladder cancers. −\nIn vitro biological assays were performed by using five human cell lines for cytotoxicity evaluation. HepG2 cells (ATCC HB-8065), derived from a human hepatocellular carcinoma of the liver (person), were cultured in Dulbecco’s modified Eagle medium (DMEM) supplemented with 5% fetal bovine serum (FBS), penicillin/streptomycin (100 IU/mL), and amphotericin B (5 μg/mL), in a humidified incubator with 5% CO2 at 37 °C. These cells were plated at a concentration of 2.0 × 10^4 cells/well in 96-well microplates. MRC-5 cells (ATCC CCL-171), derived from human lung fibroblasts of a […] fetus, were cultured under the same conditions and plated at 1.0 × 10^4 cells/well. T24 cells (ATCC HTB-4), established from a transitional cell carcinoma of the bladder (person), were also cultured under identical conditions and plated at a density of 1.0 × 10^4 cells/well. TOV-21G cells (ATCC CRL-11730), derived from a primary malignant ovarian adenocarcinoma (person), were maintained in DMEM with the same supplementation and environmental conditions and plated at 5.0 × 10^4 cells/well. […]\nHeLa, HepG2, MRC-5, T24, and TOV-21G cells were suspended in a culture medium supplemented with 5% fetal bovine serum (FBS) and seeded into 96-well microplates. The plates were incubated under a humidified atmosphere containing 5% CO2 at 37 °C for 24 h, allowing for adherence and monolayer formation. , Eight serial dilutions of the test samples, previously solubilized in dimethyl sulfoxide (DMSO), were prepared in DMEM supplemented with 1% FBS, covering a concentration range from […], and the results were converted to […]. The volume of DMSO in each well was limited to a final concentration not exceeding 2%. Following monolayer formation, the culture medium was aspirated and replaced with 100 μL of the diluted test samples and 100 μL of DMEM containing 1% FBS. The plates were then incubated under the same atmospheric and temperature conditions.\nTwo hours prior to end point reading, 20 μL of MTT [3-(4,5-dimethylthiazol-2-yl)-2,5-diphenyltetrazolium bromide] solution (1.0 mg/mL in sterile phosphate-buffered saline, Sigma-Aldrich) was added to each well. The incubation period following sample addition varied according to the cell line: 24 h for MRC-5, 48 h for T24, and 72 h for HeLa, HepG2, and TOV-21G. After the appropriate incubation, absorbance was measured by using a VICTOR X3 microplate reader (PerkinElmer), and data were processed with WorkOut 2.5 software at a wavelength of 490 nm. Formazan formation, resulting from the MTT reduction by metabolically active cells, was used as an indirect measure of cell viability. The percentage of cytotoxicity was calculated using the equation % cytotoxicity = [(A – B)/A] × 100, where A is the optical density (OD4 9 0) of untreated control cells and B is the OD4 9 0 of treated cells.\nCytotoxicity was expressed as the 50% cytotoxic concentration (CC5 0), representing the concentration of sample required to reduce cell viability by 50% relative to that of the untreated control."}, "T24 cells [2]": {"test_system": "T24 cells", "experiment": "Morphology assay, T24", "type": "cell-based, human", "conditions": "2.15-18.50 μM, 48 h", "protocol": "For the morphology assay, 2.0 × 10^5 cells were cultured in 12-well plates for 24 h to allow adherence. After this period, the cells were treated with the chalcone at concentrations of 2.15, 4.62, 9.25, and 18.50 μM for 48 h. After treatment, the cells were examined and photographed under an inverted microscope at 200× magnification."}, "HepG2 cells": {"test_system": "HepG2 cells", "experiment": "Cell cycle progression (propidium iodide flow cytometry), HepG2", "type": "cell-based, human", "protocol": "Cells were seeded in 12-well plates at a density of 1.0 × 10^5 cells per well and incubated for 24 h to allow adhesion. Following this initial incubation, the cells were treated with the chalcone at concentrations of 0.92, 2.15, 4.62, and 9.25 μM for an additional 48 h. After the treatment, the cells were washed, trypsinized, and collected along with the culture supernatant into Falcon tubes. The samples were then centrifuged at 1000 rpm for 10 min. After centrifugation, the supernatant was discarded, and the cell pellets were resuspended in 200 μL of propidium iodide staining solution before being transferred to cytometry tubes. These tubes were incubated on ice, in the dark, for 30 min. Flow cytometric analysis was performed on 20,000 events using a BD FACScalibur flow cytometer (BD Biosciences, Franklin Lakes, NJ, USA), and the data were analyzed using FlowJo software."}, "T24 cells [3]": {"test_system": "T24 cells", "experiment": "Apoptosis/necrosis analysis (annexin V/PI), T24", "type": "cell-based, human", "conditions": "18.50 μM, 48 h", "protocol": "Cells in the exponential growth phase were seeded in 12-well plates at a density of 1 × 10^5 cells per well in 3 mL of complete culture medium. Along with the experimental groups, four control groups were included: one without labeling, one labeled only with propidium iodide (PI), one labeled only with Annexin V, and one labeled with both PI and Annexin V. After 24 h, the cells were treated with the compound at concentrations of 2.15, 4.62, 9.25, and 18.50 μM for 48 h. Following the treatment period, the supernatant from each well was transferred to cytometry tubes and centrifuged at 1100 rpm for 10 min. The remaining adhered cells were washed with 1 mL of Hanks’ solution, and 500 μL of trypsin was added to detach the cells. The trypsin action was neutralized by adding 500 μL of complete medium, and the contents (detached cells plus precentrifuged supernatant) were collected into cytometry tubes, which were then centrifuged again at 1100 rpm for 10 min. After centrifugation, the supernatant was discarded. For labeling, Annexin V binding buffer was prepared by diluting 1 mL of component C in 5 mL of distilled water. Next, a 100 μg/mL propidium iodide working solution was prepared by diluting 5 μL of the 1 mg/mL stock (component B) in 45 μL of 1× buffer. […]"}, "[4]": {"conditions": "all concentrations tested (0.92–4.62 μM)"}},
  "data": [
    {"compound": "CCCc1cc(/C=C/C(=O)c2ccc(C)cc2)c(OC)c(OC)c1", "note": "[compound 3, (E)-3-(2,3-Dimethoxy-5-propylphenyl)-1-(p-tolyl)-prop-2-en-1-one]", "values": [
      {"measurement": "IC50", "setting": "[1]; Homo sapiens, HepG2, MTT, 72 h incubation, n = 3, NA: noncytotoxic at the concentrations tested", "value": "4.5 ± 1.2", "unit": "µM"},
      {"measurement": "SI (HepG2)", "setting": "[1]; IC50 MRC-5/IC50 HepG2", "value": 12.2},
      {"measurement": "morphology, T24", "setting": "T24 cells [2]", "value": "reduction in cell density was observed"},
      {"measurement": "fraction of cells in sub-G1, HepG2", "setting": "HepG2 cells; 0.92–4.62 μM", "value": "remained stable"},
      {"measurement": "G2/M phase, HepG2", "setting": "HepG2 cells; [4]", "value": "corresponding reduction"},
      {"measurement": "population of cells in the G0/G1 phase, HepG2", "setting": "HepG2 cells; [4]", "value": "significant increase"},
      {"measurement": "cell viability (annexin V/PI), T24", "setting": "T24 cells [3]", "value": "reduced cell viability"},
      {"measurement": "proportion of cells undergoing early apoptosis, T24", "setting": "T24 cells [3]", "value": "increased the proportion of cells undergoing early apoptosis"}
    ]}
  ]
}
